Data taken from patent US11352604B2, “Method of making cardiomyocytes from human pluripotent cells” (Wisconsin Alumni Research Foundation, priority 2016, dated 2022).

Test system: hPSC-CMs
Assay: Bottom-up label-free quantitative proteomics, day 30 hPSC-CMs from pI:C-treated vs untreated progenitors
Format: cell-based, human
Method: Frozen CM pellets from day 30 in the H9 cTnT-GFP reporter cell line with or without pI:C treatment were washed with Ca^2+-free DPBS and centrifuged at 10,000 g for 10 min and the wash solvent was removed. 10 μl of 4 M urea, 0.5 M ammonium bicarbonate, 1 mM DTT, 10 mM L-methionine was added to the each pellet, and the pellets were vortexed and sonicated for 5 min, followed by incubation with shaking at 50° C. for 10 min. ProteaseMax™ surfactant was added to a final concentration of 0.04% and the pellets were vortexed and incubated at 37° C. for 10 min. 30 μl of water was added to the pellets, and the pellets were incubated at 80° C. for 20 min. After centrifugation at 16,000 g for 10 min, the supernatant was collected for Bradford assay to determine protein concentration. All samples were diluted to 800 ng/μl using 1 M urea and 125 mM ammonium bicarbonate, and 50 μl of the extract was reduced with 10 mM DTT for 30 min at 37° C., followed by alkylation with 25 mM Iodoacetamide for 30 min at room temperature in dark. The pH of the samples were tested to make sure the pH was between 7-8 and Trypsin Gold (Promega®) was added to a final trypsin to substrate ratio of 1:50 and incubated at 37° C. for overnight (16 hrs). Acetic acid was added to a final concentration of 5% (pH˜3) and the samples were centrifuged at 16,000 g for 30 min prior to LC-MS analysis.
Label-free quantitative proteomics analysis was performed using a high-resolution q-TOF mass spectrometer (Impact II, Bruker Daltonics). 3.6 μg of the protein digest were injected to a C18 (New Objective) trapping column for desalting at a flow rate of […] for 5 minutes. The peptides were separated on a 250 mm PicoFrit capillary column packed with 1.9 μm, 175 A Hypersil Gold aQ C18 particles (New Objective) at a flow rate of 300 nl/min by a gradient of 5-45% mobile phase B (0.1% formic acid in acetonitrile) (mobile phase A: 0.1% formic acid in water). The capillary column tip was customized to fit into the CaptiveSpray nanoESI source (Bruker Daltonics) for direct delivery of samples to the mass spectrometer. The most abundant 30 ions were selected for fragmentation by tandem MS (MS/MS) with an active (dynamic) exclusion time of 45 sec. The control group with and without pI:C treatment were analyzed with 5 and 6, respectively, biological replicates. Each sample was analyzed with 3 injection replicates. Protein identification and quantification were performed using the MaxQuant v1.5.7. Proteins were considered identified when at least 1 unique peptide was identified in at least 2 of the biological replicates. Label-free protein quantification was performed by first normalizing the intensity of the proteins (measured by both unique and razer peptides) to the median intensity of the same dataset, and the maximum and minimum of all the non-zero values (if more than 5 values are non-zero) were removed prior to averaging the datasets from the same group. […] Protein-protein interaction analysis was performed using the STRING database.

[1] = p<0.05 and >50% change, about 2,600 proteins detected

polyinosinic-polycytidylic acid [pI:C]
number of proteins significantly downregulated [1]: 100 proteins
number of proteins significantly upregulated [1]: 168 proteins
Fold change (protein ABHD10): 2.205
Fold change (protein ACSF2): 1.971
Fold change (protein AGK): 2.084
Fold change (protein AIFM1): 2.224
Fold change (protein AK4): 0.122
Fold change (protein AKAP12): 0.2108
Fold change (protein ALDH18A1): 0.259
Fold change (protein ARL6IP1): 0.2711
Fold change (protein ATP5F1): 3.556
Fold change (protein ATP6V1F): 0.284
Fold change (protein BMP1): 2.714
Fold change (protein C5orf24): 0.2927
Fold change (protein CALD1): 0.3099
Fold change (protein CAPZA1): 0.3292
Fold change (protein CBWD1): 0.3341
Fold change (protein CDC37): 0.3347
Fold change (protein CDK9): 1.954
Fold change (protein CDKN1B): 0.3393
Fold change (protein CFC1, CFC1B): 2.61
Fold change (protein CISD1): 6.047
Fold change (protein CLNS1A): 0.3492
Fold change (protein CLPX): 3.1174
Fold change (protein COL1A2): 0.3554
Fold change (protein COL2A1): 4.221
Fold change (protein COL3A1): 0.3719
Fold change (protein COL18A1): 0.3541
Fold change (protein CPS1): 0.3857
Fold change (protein CRLF3): 0.3949
Fold change (protein CYB5R3): 2.279
Fold change (protein DBT): 71.68
Fold change (protein DCXR): 1.952
Fold change (protein DKC1): 0.3962
Fold change (protein DSG2): 0.3991
Fold change (protein DYNLL1): 0.407
Fold change (protein EDC4): 0.4111
Fold change (protein EEF1B2): 0.416
Fold change (protein EIF3A): 0.4235
Fold change (protein EIF3K): 0.4335
Fold change (protein ELAC2): 0.4539
Fold change (protein EMC1): 3.674
Fold change (protein EPN1): 2.525
Fold change (protein EPS15L1): 2.414
Fold change (protein ERLIN2): 2.026
Fold change (protein EXOSC6): 0.4623
Fold change (protein FABP5): 0.4749
Fold change (protein FLNA): 0.4757
Fold change (protein FLNB): 0.4767
Fold change (protein FUBP1): 0.484
Fold change (protein H6PD): 0.4845
Fold change (protein HEATR6): 0.4857
Fold change (protein HEBP2): 0.4867
Fold change (protein HIST1H2AJ): 4.696
Fold change (protein HMGCS1): 0.5003
Fold change (protein HSDL1): 2.135
Fold change (protein IMMT): 2.059
Fold change (protein IQGAP1): 0.5083
Fold change (protein ISOC1): 0.5114
Fold change (protein ITM2B): 2.861
Fold change (protein KLC4): 0.5119
Fold change (protein KRT18, KRT35): 0.5128
Fold change (protein KRT19): 0.5211
Fold change (protein LAMA1): 2.03
Fold change (protein LGALS1): 0.5211
Fold change (protein LMCD1): 0.5226
Fold change (protein LNP): 2.183
Fold change (protein LRRC59): 0.5235
Fold change (protein MAP2K4): 2.414
Fold change (protein MEST): 0.5333
Fold change (protein MRPS22): 1.976
Fold change (protein MT-ATP8): 2.244
Fold change (protein MTCH2): 1.99
Fold change (protein MYL6): 0.534
Fold change (protein MYO9B): 2.112
Fold change (protein NDUFA4): 2.128
Fold change (protein NGLY1): 0.5359
Fold change (protein NIT2): 0.5435
Fold change (protein NNT): 1.994
Fold change (protein NSDHL): 2.081
Fold change (protein NUP85): 2.249
Fold change (protein OGFR): 0.5517
Fold change (protein ORF1): 2.257
Fold change (protein P4HB): 0.5531
Fold change (protein PCCA): 2.032
Fold change (protein PDLIM1): 0.5561
Fold change (protein PDLIM3): 0.557
Fold change (protein PHB2): 1.952
Fold change (protein RAC1): 2.128
Fold change (protein RAD54L2): 4.857
Fold change (protein RRAS): 3.82
Fold change (protein SLC25A1): 2.333
Fold change (protein SLC25A3): 2.195
Fold change (protein SLC25A12): 1.968
Fold change (protein SMG7): 3.817
Fold change (protein THBS1, THBS3, THBS2): 3.483
Fold change (protein TMEM65): 2.197
Fold change (protein UACA): 1.958
Fold change (protein UBE4A): 5.484
Fold change (protein UQCRB): 3.665
Fold change (protein USMG5): 2.085
Fold change (protein XPO7): 2.231
